What all share (type): ADME, organism-based
A short description of series [1]: Plasma concentration in mouse at 100 mg/kg, po after 4 hrs. Details: dose 100 mg/kg, route oral.
A short description of series [2]: Half life in rat at […], iv. Details: dose 2.5 mg/kg, route intravenous. The following applies: in vivo.
A short description of series [3]: Half life in rat at […], po. More on the design: dose 2.5 mg/kg, route oral. Conditions: in vivo.
Series [4] deals with Rattus norvegicus. In words: Dose normalised AUC in rat at […], iv. Details: dose 2.5 mg/kg, route intravenous. Conditions: in vivo.
Series [5] is described as follows: Volume of distribution in rat at […]. Details: dose 2.5 mg/kg. The following applies: in vivo.
Series [6] has as its system Rattus norvegicus. In words: Dose normalised AUC in rat at […], po. More on the design: dose 2.5 mg/kg, route oral. The following applies: in vivo.
Series [7] is described as follows: Plasma concentration in mouse at 100 mg/kg, po after 1 hr. Details: dose 100 mg/kg, route oral.
A short description of series [8]: Oral bioavailability in rat at […]. Conditions: in vivo.
A short description of series [9]: Clearance in rat at […]. The following applies: in vivo. More on the design: dose 2.5 mg/kg.
Series [10] in a line: Cmax in rat at […], iv. The following applies: in vivo. Details: dose 2.5 mg/kg, route intravenous.
The nature of series [11]: Cmax in rat at […], po. Conditions: in vivo. Details: dose 2.5 mg/kg, route oral.
Series [12] in a line: Cmax in rat at 5 mg/kg, iv. More on the design: dose 5 mg/kg, route intravenous. Conditions: in vivo.
The nature of series [13]: Oral bioavailability in rat at 5 mg/kg. The following applies: in vivo.
Series [14] relates to Rattus norvegicus. As to the kind of experiment: Dose normalised AUC in rat at 5 mg/kg, po. Details: dose 5 mg/kg, route oral. Conditions: in vivo.
The nature of series [15]: Half life in rat at 5 mg/kg, po. Details: dose 5 mg/kg, route oral. The following applies: in vivo.
A short description of series [16]: Cmax in rat at 5 mg/kg, po. Details: dose 5 mg/kg, route oral. Conditions: in vivo.
Series [17] relates to Rattus norvegicus. As to the kind of experiment: Dose normalised AUC in rat at 5 mg/kg, iv. Details: dose 5 mg/kg, route intravenous. Conditions: in vivo.
Series [18] in a line: Half life in rat at 5 mg/kg, iv. The following applies: in vivo. More on the design: dose 5 mg/kg, route intravenous.
The nature of series [19]: Clearance in rat at 5 mg/kg. Details: dose 5 mg/kg. The following applies: in vivo.
A short description of series [20]: Volume of distribution in rat at 5 mg/kg. Conditions: in vivo. More on the design: dose 5 mg/kg.

The term half-life denotes how long it takes for the measured level to halve. A higher half-life goes with slow decline. For orientation: Vd means a proportionality between amount in the body and measured concentration, not a real space. Read a low Vd as confinement near the circulation. As a reminder, the bioavailability is dose-corrected exposure relative to a reference, in per cent. The clearance is the rate of elimination divided by the concentration. A low value points to a low capacity for elimination. One may read the Cmax as the peak of the concentration-time curve.

`O=c1[nH]c(CN2CC(O)C2)nc2c1oc1ccc(Br)cc12` gave a concentration at 4 h in series [1] of 22 µM. The half-life in series [2] is 8.4 h; in [3], 3.7 h. Moreover, the AUC/dose in the series on Rattus norvegicus [4] amounted to 2.6 µM·kg·h/mg; in the series with Rattus norvegicus [6], 1.5 µM·kg·h/mg. This compound registered a Vd in [5] of 2.4 L/kg. The concentration at 1 h in [7] was determined as 78 µM. The compound further came in with a bioavailability in series [8] of 56%. In [9], the clearance was 13.5 mL/min/kg. The Cmax in [10] came to 3.5 µM; in [11] it was 1.2 µM.
The compound `CN1C[C@@H]2C[C@H]1CN2Cc1nc2c(oc3ccc(Br)cc32)c(=O)[nH]1` came in with a concentration at 4 h in series [1] of 7 µM. The highest concentration (Cmax) was determined as 1.5 µM in series [12] and 0.4 µM in [16]. The same compound showed a bioavailability in [13] of 86%. Moreover, the AUC/dose worked out at 0.9 µM·kg·h/mg in the series with Rattus norvegicus [14] and 1.2 µM·kg·h/mg in the series with Rattus norvegicus [17]. Further, the half-life in series [15] and in series [18] was 2.6 h each time. Further, the concentration at 1 h in series [7] amounted to 11 µM. In series [19], this compound had a clearance of 34.1 mL/min/kg. This compound also came in with a distribution volume (Vd) in series [20] of 7.1 L/kg.
In series [1], `O=c1[nH]c(CN2CC[C@@H](O)C2)nc2c1oc1ccc(Br)cc12` came in with a concentration at 4 h of 35 µM. Also, the Cmax in series [12] was determined as 7.6 µM; in [16] it was 3.1 µM. In addition, the bioavailability in [13] was found to be 79%. Moreover, the AUC/dose worked out at 2.9 µM·kg·h/mg with Rattus norvegicus [14] and 3.8 µM·kg·h/mg in the series on Rattus norvegicus [17]. In addition, the half-life was 4.7 h in series [15] and 2.7 h in series [18]. This compound gave a concentration at 1 h in series [7] of 93 µM. The compound further had a clearance in series [19] of 13.2 mL/min/kg. Further, the volume of distribution (Vd) in series [20] is 2.3 L/kg.
The compound `N[C@@H]1CCN(Cc2nc3c(oc4ccc(Br)cc43)c(=O)[nH]2)C1` registered a concentration at 4 h in [1] of 5 µM. The figures for the Cmax in [12] and in series [16] were 1.8 µM and 0.1 µM, respectively. Besides, the bioavailability in [13] was 13%. Moreover, the AUC/dose with Rattus norvegicus [14] stood at 0.1 µM·kg·h/mg; in the series on Rattus norvegicus [17] it was 0.8 µM·kg·h/mg. Besides, the half-life in series [15] was 1.6 h; in series [18], 1.4 h. Moreover, the concentration at 1 h in [7] came out at 6 µM. The clearance in series [19] was 56.2 mL/min/kg. In series [20], this compound displayed a Vd of 6.2 L/kg.
The compound `O=c1[nH]c(CN2CCC2)nc2c1oc1ccc(Br)cc12` had a concentration at 4 h in series [1] of 5 µM. The half-life in [2] and in series [3] was 1 h throughout. The AUC/dose in the series with Rattus norvegicus [4] is 1.7 µM·kg·h/mg; in the series with Rattus norvegicus [6] it was 1.3 µM·kg·h/mg. Further, in [5], the Vd was 3.8 L/kg. For the same compound, the concentration at 1 h in series [7] came out at 13 µM. Besides, the bioavailability in series [8] was 77%. Further, the clearance in series [9] is 30.6 mL/min/kg. Also, the values for the Cmax in [10] and in series [11] were 1.8 µM and 0.8 µM, respectively.

These data come from ChEMBL document CHEMBL2034948, “The design, synthesis, and biological evaluation of PIM kinase inhibitors” (Bioorg Med Chem Lett, 2012).
